These results are taken from a melting point compilation (Tetko et al.; mined from patent text by program, amines drawn as free bases though some values may be those of a salt).

Bounds are passed on as bounds.

In general, melting point refers to the temperature of the solid-liquid transition. Regarding `COc1c(O)ccc(C(=O)c2ccccc2)c1F`, the melting point was 126 to 128 °C.
For the compound `CCOC(=O)CC(CC(=O)Nc1ccc(Cl)c(C=C(Cl)C(=O)OCC)c1)C(F)(F)F` (stereo not drawn), the melting point lay in the range of 115 to 117 °C.
For the compound `Cn1c(-c2ccc(-n3ccnc3)cc2)cnc1[C@H](Cc1ccccn1)N(C=O)c1cc2ccc(Cl)cc2o1`, the melting point is 165 to 169 °C.
The compound `COC(=O)c1cc2c(nc1Cl)CCCCC2` returned a melting point of 148 to 149 °C.
Compound `CN1C(=O)OCCc2cc(Nc3ncc(Cl)c(Nc4c(F)cccc4OCCO)n3)ccc21` gave a melting point of 199 to 201 °C.
In turn, `COC(=O)c1cc(-c2ccc3c(c2)c2cc(-c4ccc(Cl)cc4Cl)c(=O)n(C)c2n3C)[nH]n1` registered a melting point of 290 to 292 °C.
`CCn1c(CCSC)nc(N2CCc3ccccc3CC2)c(C#N)c1=O` displayed a melting point of 102 to 104 °C.
Compound `Clc1ccc2c(c1)C(NC1=NCCS1)CCC2` (stereo not drawn) returned a melting point of 164 to 166 °C.
As for `Cc1oc(-c2ccccc2Cl)nc1CCOc1ccc([N+](=O)[O-])cn1`, the melting point fell in the range of 100 to 101 °C.
Compound `COc1c(CO)cccc1Oc1ccccc1C` showed a melting point of 63 to 65 °C.
With `CCOC(=O)/C(=N\OC1CCCCCCC1)c1csc(N)n1` the figure was 117 to 118 °C; with `COc1ccc2c(C)c(CCCl)c(=O)oc2c1OC`, 137 to 139 °C.
As for `COC(=O)C1=C(C)Nc2ncnn2C1c1cccs1` (stereo not drawn), the melting point was in the range of 239 to 240 °C.
As for `OCc1cccc(/C=C/c2ccccc2)c1`, the melting point fell in the range of 87 to 88 °C.
For the compound `CCOC(=O)CNc1cc(C(F)(F)F)ccc1C#N`, the melting point lay within 98 to 101 °C.
Regarding `NC1C(=O)N2C1SC1(CCOCC1)C2C(=O)O` (stereo not drawn), the melting point lay in the range of 189 to 192 °C.
Consider `COc1ccc(CCN2CCc3cc(OC[C@H]4CO[C@](Cn5ccnc5)(c5ccc(Cl)cc5Cl)O4)ccc3C2)cc1` (racemic), for which the melting point is 121 to 122 °C.
Turning to `CC(=O)Oc1nc(-c2ccccc2)sc1-c1ccccc1`, the melting point was in the range of 101 to 103 °C.
With `c1cnc2c(N3CCC(N4CCN(c5cccc6[nH]ccc56)CC4)CC3)cccc2c1`, the melting point is 256 °C.
In the case of `CCCCCS(=O)(=O)NC(=O)/C=C/c1ccc(OCCOC)cc1OCC1CCCCC1`, the melting point is 97.5 to 98.3 °C.
As to `CN1CCCC(C2=C(C#N)C(c3cccc(C#N)c3Br)c3c[nH]nc3N2)C1` (stereo not drawn), the melting point amounted to 174 °C.
`O=C(NC(=O)c1ccccc1)NC1CCN(CC(=O)C2COc3ccccc3O2)CC1` (stereo not drawn) displayed a melting point of 160 to 161 °C.
As to `Cc1cc(C(=O)O)ncc1C(c1cc(F)ccc1F)S(=O)(=O)c1ccc(Cl)cc1` (stereo not drawn), the melting point lay within 208 to 209 °C.
For the compound `OC(Cn1cncn1)(c1ccc(F)cc1F)C1(SC(F)(F)F)CC1` (stereo not drawn), the melting point amounted to 103 °C.
Compound `COCC1CCN(c2ccc(C#N)c3ccccc23)CC1` returned a melting point of 96 to 97 °C.
Regarding `COc1c(-c2noc3ccsc23)ccc2c1O2`, the melting point is 88 to 90 °C.
The compound `Cc1cccc(Nc2cc(Nc3cccc(OCC4CO4)c3)ncn2)c1` (stereo not drawn) registered a melting point of 143 to 145 °C.
As to `Cc1nc(N2CCC(O)C2)c2nc(-c3ccccc3)cc-2[nH]1` (stereo not drawn), the melting point was 234 to 235 °C.
In turn, `O=c1[nH]c2ccc(C=CCN3CCC(Cc4ccc(F)cc4)CC3)cc2o1` returned a melting point of 202 to 204 °C.
Consider `N#Cc1ccc(-c2cc(=O)c3cccnc3o2)cc1`, for which the melting point was 250 to 252 °C.
Compound `CNC(=O)C(Cc1ccc(OC)cc1)NC(=O)C(CC(C)C)C(CC(=O)N1CCN(C)CC1)SC(C)=O` (stereo not drawn) displayed a melting point of 133 to 138 °C.
With `CCNc1ccc(CN2OCC(C)(C)C2=O)c(Cl)c1` the figure was 135 to 138 °C; with `COC(=O)C1=C(C)NC(C)=C(C(=O)OCCN2CCN(c3ccc(F)cc3)CC2)C1c1cccc(Cl)c1` (stereo not drawn), 44 to 49 °C.
Compound `COc1cc(C)nc(NC(=O)NS(=O)(=O)c2ccccc2CCC(F)(F)F)n1` came in with a melting point of 174 to 175 °C.
As to `Cc1cc(CCCCCOc2c(Cl)cc(-c3noc(C(F)(F)F)n3)cc2Cl)on1`, the melting point lay within 42 to 43 °C.
In turn, `O=C(O)c1c(Cl)cc(N2C(=O)N3CCCC3(Cc3ccc(Br)cc3)C2=O)cc1Cl` (stereo not drawn) had a melting point of 152 °C.
Under `CC(=O)c1ccccc1NC(C#N)c1c(Cl)cccc1Cl` (stereo not drawn) stands 179 °C; under `CC(C)Cn1c(CNC(=O)OC(C)(C)C)c(-c2cccs2)c2cc(C(N)=O)ccc2c1=O`, 248 to 250 °C.
As to `O=C(O)CCCCc1cccn2cncc12`, the melting point lay within 195 to 197 °C.
Consider `O=[N+]([O-])c1c(F)c(F)c(O)c(Cl)c1F`, for which the melting point fell in the range of 107 to 109 °C.
Regarding `COc1ccccc1N1CCN(Cc2ccc(NC(=O)C3=Cc4cc(-c5ccc(C)cc5)ccc4CC3)cc2)CC1`, the melting point lay within 202 to 205 °C.
With `CCCCn1nc2c(N)nc3ccccc3c2c1CCS(=O)(=O)CCC` the figure was 169 to 171 °C.
For the compound `CC(C)(O)Cc1cccc2ccccc12`, the melting point was 47 to 48 °C.
`COc1c2c(c(OC)c(OC)c1OC)CCC(CCOc1ccc(Cl)cc1)CC2` returned a melting point of 98 to 102 °C.
Under `CC(C)(C)c1cc(CCc2ccccc2NC(=O)N2CCOCC2)cc(C(C)(C)C)c1O` stands 186 to 189 °C.
The compound `CCOC(=O)c1cn(C2COC2)c2c(F)c(F)cc(F)c2c1=O` displayed a melting point of 169 to 171 °C.
Compound `Cc1cccc2nc(-c3ccc(Cl)cc3)c(C(N)=O)c(=O)n12` displayed a melting point of 202 to 204 °C.
Under `CCC12CCC3C4=C(CC(OC)=CC4)C(C)CC3C1CCC2O` (stereo not drawn) stands 176 to 182 °C; under `Cc1cccc(C)c1/N=C1\SCC(=O)N1/N=C/c1ccc(-c2ncn(-c3ccc(OC(F)(F)F)cc3)n2)cc1`, 209 to 213 °C.
With `OCCOCc1c(Br)c(Br)c(COCCO)c(Br)c1Br`, the melting point fell in the range of 145 to 147 °C.
For the compound `CCOC(=O)c1nc(-c2ccccc2)n(-c2ccc(C(F)(F)F)cc2Cl)n1`, the melting point lay within 107 to 108 °C.
With `N#CCCNC(=O)c1n[nH]cc1NC(=O)C1CCCC1` the figure was 180 to 181 °C; with `O=S1(=O)NCCc2ccc(Oc3ccccc3)cc21`, 129 to 132 °C; with `CCCCC1=NC2(CCCC2)C(=O)N1Cc1ccc(-c2ccccc2S(=O)(=O)Nc2noc(C)c2C)c(CCC)c1`, 64 to 66 °C.
Compound `OC(CCl)COc1ccc(-c2nc(C(F)(F)F)c[nH]2)cc1` (stereo not drawn) showed a melting point of 181 to 183 °C.
The compound `O=c1[nH]cnc2oc(-c3ccccc3)cc12` registered a melting point of 320 to 322 °C.
Take `CS(=O)(=O)Nn1c(=O)[nH]c2cc(C(F)(F)F)c(-n3cnc(C(F)(F)F)c3)cc2c1=O`: the melting point lay in the range of 144 to 147 °C.
With `O=c1oc2ccccc2c(=O)n1OS(=O)(=O)C(F)(F)F` the figure was 74 to 76 °C; with `Cc1nc2c3c(c(C(N)=O)cc2n1C)CCC1(Cc2ccccc2C1)N3`, 272 to 273 °C; with `COc1cc(OC)nc(NC(=O)NS(=O)(=O)c2ncccc2OCCCl)n1`, 156 to 158 °C.
Compound `CC(C)CCCC(C)C1CCC2C3CC=C4CC(OCCCCCCN5C(=O)c6ccccc6C5=O)CCC4(C)C3CCC12C` (stereo not drawn) had a melting point of 80 °C.
The compound `CC(C)c1cccc(C(C)C)c1NC(=O)Nc1nnn[nH]1` returned a melting point greater than 240 °C.
For `S=C(NCCCN1CCN(Cc2ccc(Cl)cc2)CC1)NC1CCCCC1`, the melting point was 127 to 128 °C.
